Source: ChEMBL document CHEMBL1201862, “PubChem BioAssay data set” (2004)
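Dose response: 5 concentrations. Exposure: 48 h. Format: 96-well plates. Endpoint: linear interpolation; highest concentration if not reached. At the GI50, growth is halved.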 The source made the active and inactive calls. Cut-off read from the data, not from the text of the source: active = GI50 up to about 1.1 µM and inactive = higher.

Experiments:
Assay in all cases: NCI anticancer screen, dose series, 48 h
[1] = tested on: 786-0
[2] = tested on: A498
[3] = tested on: A549
[4] = tested on: ACHN
[5] = tested on: CAKI-1
[6] = tested on: CCRF-CEM
[7] = tested on: COLO 205
[8] = tested on: DLD-1
[9] = tested on: DMS-114
[10] = tested on: DMS-273
[11] = tested on: EKVX
[12] = tested on: HCC 2998
[13] = tested on: HCT-116
[14] = tested on: HL-60
[15] = tested on: HOP-18
[16] = tested on: HOP-62
[17] = tested on: HOP-92
[18] = tested on: HT-29
[19] = tested on: IGROV-1
[20] = tested on: K562
[21] = tested on: KM-20L2
[22] = tested on: KM12
[23] = tested on: LOX IMVI
[24] = tested on: LXFL 529
[25] = tested on: M14
[26] = tested on: M19-MEL
[27] = tested on: MOLT-4
[28] = tested on: Malme-3M
[29] = tested on: NCI-H226
[30] = tested on: NCI-H23
[31] = tested on: NCI-H460
[32] = tested on: NCI-H522
[33] = tested on: OVCAR-3
[34] = tested on: OVCAR-4
[35] = tested on: OVCAR-5
[36] = tested on: OVCAR-8
[37] = tested on: RPMI-8226
[38] = tested on: RXF 393
[39] = tested on: RXF 631
[40] = tested on: SF-268
[41] = tested on: SF-295
[42] = tested on: SF-539
[43] = tested on: SK-MEL-28
[44] = tested on: SK-MEL-2
[45] = tested on: SK-MEL-5
[46] = tested on: SK-OV-3
[47] = tested on: SN12C
[48] = tested on: SNB-19
[49] = tested on: SNB-75
[50] = tested on: SR
[51] = tested on: SW-620
[52] = tested on: TK-10
[53] = tested on: U-251
[54] = tested on: UACC-257
[55] = tested on: UACC-62
[56] = tested on: UO-31
[57] = tested on: HCT-15
[58] = tested on: SNB-78
[59] = tested on: XF498

COc1ccc(CN2C(=O)C(Cc3cc(OC)c(OC)c(C)c3OC)N(C(=O)OC(C)C)C(=O)/C2=C/c2cc(OC)c(OC)c(C)c2OC)cc1 (centres undefined)
GI50 [1]: > 100 µM (inactive)
GI50 [2]: > 100 µM (inactive)
GI50 [3]: > 100 µM (inactive)
GI50 [4]: > 100 µM (inactive)
GI50 [5]: > 100 µM (inactive)
GI50 [6]: 59.6 µM (inactive)
GI50 [7]: 45.2 µM (inactive)
GI50 [8]: > 100 µM (inactive)
GI50 [9]: 24.9 µM (inactive)
GI50 [10]: 23.6 µM (inactive)
GI50 [11]: 50.8 µM (inactive)
GI50 [12]: > 100 µM (inactive)
GI50 [13]: 66.2 µM (inactive)
GI50 [14]: 7.96 µM (inactive)
GI50 [15]: 16.3 µM (inactive)
GI50 [16]: > 100 µM (inactive)
GI50 [17]: > 100 µM (inactive)
GI50 [18]: > 100 µM (inactive)
GI50 [19]: > 100 µM (inactive)
GI50 [20]: 41 µM (inactive)
GI50 [21]: > 100 µM (inactive)
GI50 [22]: > 100 µM (inactive)
GI50 [23]: > 100 µM (inactive)
GI50 [24]: 12.7 µM (inactive)
GI50 [25]: > 100 µM (inactive)
GI50 [26]: > 100 µM (inactive)
GI50 [27]: 5.94 µM (inactive)
GI50 [28]: 64.9 µM (inactive)
GI50 [29]: 14.8 µM (inactive)
GI50 [30]: > 100 µM (inactive)
GI50 [31]: 18.4 µM (inactive)
GI50 [32]: 4.4 µM (inactive)
GI50 [33]: 16.1 µM (inactive)
GI50 [34]: > 100 µM (inactive)
GI50 [35]: > 100 µM (inactive)
GI50 [36]: > 100 µM (inactive)
GI50 [37]: 16.4 µM (inactive)
GI50 [38]: 6.9 µM (inactive)
GI50 [39]: > 100 µM (inactive)
GI50 [40]: > 100 µM (inactive)
GI50 [41]: > 100 µM (inactive)
GI50 [42]: > 100 µM (inactive)
GI50 [43]: > 100 µM (inactive)
GI50 [44]: 49.1 µM (inactive)
GI50 [45]: 46.8 µM (inactive)
GI50 [46]: > 100 µM (inactive)
GI50 [47]: > 100 µM (inactive)
GI50 [48]: > 100 µM (inactive)
GI50 [49]: 83.8 µM (inactive)
GI50 [50]: 15.2 µM (inactive)
GI50 [51]: > 100 µM (inactive)
GI50 [52]: > 100 µM (inactive)
GI50 [53]: > 100 µM (inactive)
GI50 [54]: 48 µM (inactive)
GI50 [55]: > 100 µM (inactive)
GI50 [56]: 16.6 µM (inactive)

Cc1nc(-n2nc(-c3ccccc3)cc2-c2ccccc2)sc1C(=O)/C=C/c1ccc(/C=C/C(=O)c2sc(-n3nc(-c4ccccc4)cc3-c3ccccc3)nc2C)cc1
GI50 [1]: 18.6 µM (inactive)
GI50 [3]: 39 µM (inactive)
GI50 [4]: 19.9 µM (inactive)
GI50 [5]: 22.2 µM (inactive)
GI50 [6]: 30.6 µM (inactive)
GI50 [7]: 20.2 µM (inactive)
GI50 [8]: 20.8 µM (inactive)
GI50 [9]: 36.9 µM (inactive)
GI50 [10]: 21.1 µM (inactive)
GI50 [11]: 46.5 µM (inactive)
GI50 [12]: 20.1 µM (inactive)
GI50 [13]: 19.8 µM (inactive)
GI50 [57]: 34.3 µM
GI50 [14]: 32.9 µM (inactive)
GI50 [16]: 23.6 µM (inactive)
GI50 [18]: 21.6 µM (inactive)
GI50 [19]: 15.2 µM (inactive)
GI50 [20]: 30.3 µM (inactive)
GI50 [21]: 19.1 µM (inactive)
GI50 [22]: 18.8 µM (inactive)
GI50 [23]: 20 µM (inactive)
GI50 [24]: 27.7 µM (inactive)
GI50 [25]: 20 µM (inactive)
GI50 [26]: 25.9 µM (inactive)
GI50 [27]: 25.1 µM (inactive)
GI50 [28]: 19.1 µM (inactive)
GI50 [29]: 26.8 µM (inactive)
GI50 [30]: 19.1 µM (inactive)
GI50 [31]: 29 µM (inactive)
GI50 [32]: 17.8 µM (inactive)
GI50 [33]: 20.8 µM (inactive)
GI50 [34]: 35.2 µM (inactive)
GI50 [35]: 25.5 µM (inactive)
GI50 [36]: 32.8 µM (inactive)
GI50 [38]: 22.8 µM (inactive)
GI50 [39]: 28.1 µM (inactive)
GI50 [40]: 23.2 µM (inactive)
GI50 [41]: 23.9 µM (inactive)
GI50 [42]: 19.2 µM (inactive)
GI50 [43]: 19.5 µM (inactive)
GI50 [44]: 22.1 µM (inactive)
GI50 [46]: > 100 µM (inactive)
GI50 [47]: 19.6 µM (inactive)
GI50 [48]: 21.8 µM (inactive)
GI50 [58]: 33.4 µM (inactive)
GI50 [50]: 27.2 µM (inactive)
GI50 [51]: 34.8 µM (inactive)
GI50 [52]: 34.1 µM (inactive)
GI50 [53]: 19 µM (inactive)
GI50 [54]: 21 µM (inactive)
GI50 [55]: > 10 µM (inactive)
GI50 [56]: 20.1 µM (inactive)
GI50 [59]: 21.8 µM (inactive)
